These results are taken from BindingDB's records for doi:10.1021/jm960054c (Merck Research Laboratories, 1996).

The target in the assay is Growth hormone secretagogue receptor type 1 (Sus scrofa). The assay can be described thus: Binding Affinity against Growth hormone secretagogue receptor of swine using [35S]MK-0677 as radioligand.

SMILES strings stand for the structures. pKi: −log10 of the molar value.

Usually pKi stands for the Ki on a negative log10 scale, so that one unit is a factor of ten. Read a low pKi as a high Ki. `CC(C)(N)CC(=O)N[C@@H]1CCc2ccccc2N(Cc2ccc(-c3ccccc3-c3nnn[nH]3)cc2)C1=O` [3-Amino-3-methyl-N-{2-oxo-1-[2'-(1H-tetrazol-5-yl)-biphenyl-4-ylmethyl]-2,3,4,5-tetrahydro-1H-benzo[b]azepin-3-yl}-butyramide] had a pKi of 7.20.

`CC(C)(N)CC(=O)N[C@H]1CCc2ccccc2N(Cc2ccc(-c3ccccc3-c3nnn[nH]3)cc2)C1=O` [3-Amino-3-methyl-N-{(S)-2-oxo-1-[2'-(1H-tetrazol-5-yl)-biphenyl-4-ylmethyl]-2,3,4,5-tetrahydro-1H-benzo[b]azepin-3-yl}-butyramide] gave a pKi of less than 5.30.
